Data published in US20040110718A1, “Anti-HCV nucleoside derivatives” (priority 2000, published 2004).

Experiments:
[1] = tested on: HCV replicon RNA replication; experiment: HCV replicon assay, Renilla luciferase reporter; format: cell-based; conditions: Hepatitis C virus, Huh-7, 72 h; Renilla luciferase HCV replicon cells (2209-23, Huh7), three days incubation; concentration reducing luciferase activity/replicon level by 50%
[2] = tested on: HCV replicon RNA replication; experiment: HCV replicon assay (quantification of replicon RNA, Northern blot / Taqman kinetic PCR); format: cell-based; conditions: Hepatitis C virus, Huh-7, 72 h
Description: Assay Method: The activity of the compounds was assayed using an adaptation of the method reported by Lohmann et al [V. Lohmann et al., Science, 1999, 285, 110-113].
The HCV replicon-containing cell line is used for the identification of small molecules that are able to inhibit the replication of the replicon RNA. Since the replicon RNA replication mimics the replication of the HCV RNA in infected hepatocytes, it is believed that those small molecules that have the above property are interesting for further development as anti-HCV drugs.
The inhibition of the HCV replicon RNA replication will lead to a decrease of the replicon RNA in the cell, which can be measured using a method that specifically quantifies this RNA.
Northern blot: One method for quantification of this RNA uses the standard Northern blot known to any person skilled in the art.
Kinetic PCR: A second assay for the quantification of replicon RNA is based on the amplification of the replicon RNA that remains in the cell, after incubation of the cells with a proper concentration of the small molecules. This method involves the reverse transcription of the replicon RNA to the corresponding complementary DNA (cDNA), followed by amplification of the cDNA using the Taqman Kinetic PCR technology (PE Biosystems). This consists of hybridisation of the cDNA with a complementary reporter oligonucleotide (probe), containing a combined fluorescent dye and a quencher dye. Amplification of the DNA sequence containing the hybridised reporter probe, using flanking oligonucleotide primers will lead to the separation of the fluorescent dye from the quencher dye. This will result in an increase of the fluorescence during each amplification cycle.
The neomycin phosphotransferase gene sequence that is present in the replicon RNA was chosen for amplification using specifically designed oligonucleotide primers. To control for (a) cell number that can vary depending on the toxicity or cytostatic effect of the small molecules, and (b) for errors during total RNA extraction, amplification of the host β-actin gene is used for normalisation.
The accumulation of the PCR products during the reaction is monitored directly by measuring the increase in fluorescence of the reporter dye. The amount of HCV replicon RNA (and β-actin RNA) originally present in the total RNA extracted from the cells is then expressed as a threshold cycle, e.g. the cycle at which there is a statistically significant increase in the fluorescence above the background.
For this procedure, HCV replicon-containing human hepatoma Huh7 cells (9-13) in growth medium (DMEM) containing 5% FCS are plated in a 96-well plate at 5×10^3 cells per well, and the plate incubated overnight. 24 hours later, different dilutions in 0.1 ml growth medium of chemical compounds were added to the wells, and the plate further incubated at 37° C. for three days. Total RNA coming from each well is extracted using the RNeasy™ procedure (Qiagen manufacturer instructions), and the total RNA is eluted in a final volume of 0.13 ml. Next, a 2 μl sample of the total RNA is used for convertion into cDNA using a reverse transcription (RT) step. A RT mastermix containing 1 μl 10× Taqman RT buffer, 2.2 μl 25 mM MgCl2 (5.5 mM final conc.), 2 μl dNTP mix (500 μM each), 0.5 μl random hexamer primers (2.5 μM), 0.2 μl RNase inhibitor (0.4 u/μl ), 0.25 μl RT (1.25 u/μl ), 1.85 μl H2O, was distributed in a 96-well plate and 2 μl total RNA was added to each well.
The RT reaction is performed by incubation of the plate 10 min at 25° C., 30 min at 48° C., 5 min at 95° C. and cooling to 4° C. The cDNA samples are then stored at −20° C. or directly used for the PCR reaction. […]

[3] = HCV replicon-containing human hepatoma Huh7 cells (9-13), three days incubation, concentration reducing replicon RNA levels by 50%, read-out: IC50

## CCNc1ncnc2c1ncn2[C@@H]1O[C@H](CO)[C@@H](O)[C@H]1O [Example 252, 6-ethylamino-9-(β-D-ribofuranosyl)purine]
[1]
  IC50: 14 µM

## OC[C@H]1O[C@@H](n2cnc3c(-c4ccccc4)ncnc32)[C@H](O)[C@@H]1O [Example 182, 6-Phenyl-9-(β-D-ribofuranosyl)purine]
[2]; [3]
  IC50: 0.1 µM
other
  melting point: 224 to 225 °C

## CCCNc1ncnc2c1ncn2[C@@H]1O[C@H](CO)[C@@H](O)[C@H]1O [Example 253, 6-propylamino-9-(β-D-ribofuranosyl)purine]
[1]
  IC50: 7 µM

## OC[C@H]1O[C@@H](n2cnc3c(-c4ccsc4)ncnc32)[C@H](O)[C@@H]1O [Example 181, 9-(β-D-Ribofuranosyl)-6-(3-thienyl)purine]
[2]
  IC50: 0.05 µM
other
  melting point: 166 to 167 °C (dec.)

## Nc1ccn([C@@H]2O[C@H](CO)[C@H](F)[C@H]2O)c(=O)n1 [Example 249, 1-(3-deoxy-3-fluoro-β-D-xylofuranosyl)cytosine]
[1]
  IC50: 10.4 µM

## Nc1ccn([C@@H]2O[C@H](CO)[C@H](O)[C@H]2O)c(=O)n1 [Example 247, 1-(β-D-xylofuranosyl)cytosine]
[1]
  IC50: 3.7 µM

## C=CCNc1ncnc2c1ncn2[C@@H]1O[C@H](CO)[C@@H](O)[C@H]1O [Example 80, 6-(2-Propenyl)amino-9-(β-D-ribofuranosyl)purine]
[2]
  IC50: 5.7 µM

## Nc1c2ncn([C@@H]3O[C@H](CO)[C@@H](O)[C@H]3O)c2nc[n+]1[O-] [Example 7, Adenosine-1-oxide]
[2]; [3]
  IC50: 2 µM

## Nc1ccn([C@@H]2C[C@H](CO)[C@@H](O)[C@H]2O)c(=O)n1 [Example 246, 4-amino-1(R)-(2(S),3(R)-dihydroxy-4(R)-hydroxymethyl-cyclopentyl)-1H-pyrimidin-2-one]
[1]
  IC50: 0.4 µM
